Drawing on a melting point compilation (Tetko et al.; mined from patent text by program, amines drawn as free bases though some values may be those of a salt), this text covers melting point for 64 molecules.

Usually melting point stands for the temperature of the solid-liquid transition.

Where only a bound is given, the exact number is not on record here.

`NS(=O)(=O)c1cc2cc(N3CCOCC3)ccc2s1` showed a melting point of 155 to 156 °C.

On to `COCCNC(=O)c1cccc(-c2cccc3c2nc(Oc2ccc(Cl)c(F)c2)n3C)c1`, for which the melting point fell in the range of 150 to 151 °C.

Regarding `Cc1oc(-c2ccc(Cl)cc2)nc1CC(=O)O`, the melting point lay within 160 to 161 °C.

Turning to `Cc1cc(C(=O)c2[nH]c3cc(Cl)ccc3c2CC(=O)O)no1`, the melting point was 227 to 229 °C. Consider `O=C(C=Cc1ccncc1)c1cccc(C(F)(F)F)c1`, for which the melting point was 89 to 90 °C. `Cc1cc(C)cc(NC(=O)c2ccc([N+](=O)[O-])cc2)c1` displayed a melting point of 206 to 210 °C. `COC(=O)c1nc(-c2ccccc2)n2c1CN=C(c1ccccc1Cl)c1cc(Cl)ccc1-2` returned a melting point of 272 to 275 °C. Next, `CC1(C)CCCC(C)(C)N1c1nc(Cl)cc(Cl)n1`: 89 to 90 °C; `Cc1cn(CC(=O)c2ccc(-c3ccc(N4C[C@H](Cn5ccnn5)OC4=O)cc3F)cn2)c(C)n1`: 78 °C; `CCn1c(=O)c2[nH]c(/C=C/c3cccc(OC)c3)nc2n(CC)c1=O`: 271 to 272 °C. With `CCOC(=O)C=CC=Cc1ccc(F)c([N+](=O)[O-])c1`, the melting point was in the range of 106 to 107 °C. Next, `CCN(CC)Cc1ccc2cc(COc3cccc4c3CN(C3CCC(=O)NC3=O)C4=O)sc2c1` (centres undefined): 190 to 192 °C. With `Cc1csc(Nc2cc3ccccc3cn2)n1`, the melting point was 212 to 215 °C.

On to `CCNC(=O)c1cc(C(=O)O)cc(C(=O)NCC)n1`, for which the melting point was 278 to 280 °C. Next, `CN=C(NC)Nc1nc(CSCCNC2=NS(=O)(=O)N=C2NC)cs1`: 132 to 137 °C. Take `NS(=O)(=O)c1ccc(-c2nn3c(-c4ccc(F)cc4)coc3c2-c2ccc(F)cc2)cc1`: the melting point lay within 235 to 237 °C. In turn, `CC(=O)Nc1cccc2ccc(OCC3CC3)cc12` returned a melting point of 154 to 155 °C. Under `CN(C)C(=O)Nc1ccc(Oc2ccc3sncc3c2)c(Cl)c1` stands 149 °C.

In the case of `Cc1cc2c(cc1C(=O)c1c(C(F)(F)F)ccnc1Cl)OCO2`, the melting point lay within 119 to 122 °C. Under `COC(=O)c1cc(C#N)ccc1NC(=O)c1cccc(S(=O)(=O)N2CCOCC2)c1` stands 184 to 185 °C. Under `CC(C)(C)OC[C@@H]1NCCN(CC(=O)O)C1=O` stands 178 to 180 °C; under `C(#Cc1ccccn1)CCn1nnc(-c2ccccc2)n1`, 71 to 73 °C; under `Cc1ccc(OC(=O)C=Cc2ccc([N+](=O)[O-])cc2)cc1`, 168 to 170 °C. The molecule `CC(=O)NCCC1CCCc2ccc(O)cc21` (centres undefined) gave a melting point of 153 to 155 °C. Next, `O=c1c2c(O)c(O)ccc2c2cc(O)c(O)cc2n1Cc1ccc(Cl)c(Cl)c1`: 246 °C. Molecule `COc1cccc2c1OCC(C(=O)O)O2` (centres undefined) yielded a melting point of 85 to 87 °C. On to `O=C(O)COc1ccc(OCCC2CCN(c3ccncc3)CC2)cc1`, for which the melting point lay within 247 to 249 °C. Under `COc1ccc(C(=O)Cc2c(Cl)cccc2Cl)c2c1OCCO2` stands 154 to 155 °C. Under `CCOc1ccccc1NC(=O)C(C)(C)CCCOc1cc(C)ccc1C` stands 59 to 60 °C; under `Fc1ccc(Cn2cnc3ccccc32)cc1`, 60 to 62 °C.

Regarding `COC(=O)CCn1c(C)c(Cn2ccnc2)c2cc(CCC(=O)O)ccc21`, the melting point fell in the range of 134 to 137 °C. Under `O=C1c2cc3ccccc3c(-c3ccccc3)c2C(=O)N1C1CC1` stands 198 °C. The molecule `C1=CC(Nc2ccccc2)C(=Nc2ccccc2)N1` (centres undefined) displayed a melting point of 137 to 139 °C. `O=C1ON(c2ccccc2Cl)C(c2ccccc2)C1c1ccccc1` (centres undefined) registered a melting point of 178 to 180 °C. Under `CCOC(=O)c1c(CCc2ccc(OC)cc2)oc2ccc(Br)cc12` stands 73 to 75 °C.

Regarding `CCCn1c(=O)c2[nH]c(/C=C/c3ccc(Cl)c(Cl)c3)nc2n(CCC)c1=O`, the melting point was 195 to 202 °C.

In the case of `CCOC(=O)c1ncc2[nH]c3ccc([N+](=O)[O-])cc3c2c1C`, the melting point was in the range of 272 to 275 °C.

`CC(C)(CCCCC=CCCCCC(C)(C)CC(=O)O)CC(=O)O` gave a melting point of 100 to 101 °C. As to `COC(=O)CCSCCCCCCCCCCCCI`, the melting point is 33 °C. Next, `CC1CCN(C(=O)C(Cc2cc3c(N)nccc3s2)NS(=O)(=O)c2ccc(OC3CCOCC3)cc2)CC1` (centres undefined): 127 to 129 °C; `CCc1nc2c(N)nc3cc(OCC(=O)N4CCOCC4)ccc3c2n1CC1CCOCC1`: 245 to 247 °C; `COC(=O)[C@@H]1C[C@@H](OS(C)(=O)=O)CN1C(=O)OC(C)(C)C`: 86 to 87 °C.

`Cc1ccc(C(=O)Nc2nc(-c3ccccc3)c(-c3nc4ccccc4c(=O)n3-c3ccccc3Cl)s2)cc1` had a melting point above 275 °C. Under `Cc1ccccc1C(Oc1cc(OCc2ccc3ocnc3c2)ccc1C#N)C(=O)O` (racemic) stands 189 to 191 °C; under `CN(C)C(=O)c1cc(O)ccc1O`, 144 to 146 °C. Next, `Cn1nc(C(O)c2ccccn2)nc1NCCCOc1cccc(CN2CCCCC2)c1` (centres undefined): 152 to 154 °C; `CS(=O)(=O)c1ccc(C(=O)N2CCNC2=Nc2c(Cl)cccc2Cl)cc1`: 240 to 244 °C. `O=C(O)c1ccccc1CNC1CCOC1=O` (centres undefined) returned a melting point of 112 to 114 °C. `CCCC(CNC(=O)Cc1c(Cl)cncc1Cl)c1cccc(OC)c1` (centres undefined) gave a melting point of 97 to 98 °C. Next, `Nc1cc(=O)n(Cc2cc(Cl)ccc2F)[nH]1`: 160 °C; `CSc1ncc2cc(-c3c(Cl)cccc3Cl)c(=NC(C)=O)n(C)c2n1`: 229 to 231 °C; `O=C(Oc1c(F)c(F)c(F)c(F)c1F)c1ccccc1O`: 111 to 112 °C.

Consider `Cc1nccn1-c1ccc(COc2cccc(C3(C#N)CCOCC3)c2)cc1`, for which the melting point was in the range of 153 to 154 °C.

In the case of `CN(CCCNC(=NCCCCOc1cccc(CN2CCCCC2)c1)NC#N)CCN(Cc1ccc(F)cc1)c1ccccn1`, the melting point fell in the range of 102 to 105 °C.

In turn, `Cc1cccc(C(=O)NO)c1N(C)S(=O)(=O)c1ccc(OCCCNC(=O)c2ccc3c(c2)OCO3)cc1` showed a melting point of 102 to 112 °C.

`CON=C(C(C)=O)C(=O)N(C)C` came in with a melting point of 73.5 to 75 °C. Next, `CCOC(=O)c1cnc2nn(C)cc2c1NC(C)CC` (centres undefined): 132 to 134 °C; `O=C(CCc1ccc(O)cc1)OCc1ccc([N+](=O)[O-])cc1`: 80 to 82 °C. Under `COc1ccc(Sc2cnc(NC(C)=O)s2)cc1` stands 190 to 191 °C. Molecule `C#Cc1cc(-c2cccs2)c(OC)cc1OC` displayed a melting point of 141 to 142 °C. With `COc1ccc2c(c1OC)CCC1CN(C(=O)CCc3ccc([N+](=O)[O-])cc3)CC21` (centres undefined), the melting point fell in the range of 231 to 234 °C. Molecule `CN1CCC2(C)c3cc(OC(=O)N4CCc5ccccc5C4)ccc3N(C)C12` (centres undefined) yielded a melting point of 118 to 119 °C.

Regarding `CC(=O)OCC1(C)OCC2(CO1)COC(C)(COC(C)=O)OC2` (centres undefined), the melting point fell in the range of 66 to 67 °C. Under `COC(=O)C1=C(C)NC(C)=C(C(=O)OCCN(C)Cc2ccccc2)C1c1cc([N+](=O)[O-])ccn1` (centres undefined) stands 163 °C.
